Assay results from PubChem BioAssay (NCI).
“And” between values parts separate entries of the source, which are not always exact repeats. Identical values can stand only once.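 48-hour exposure; five concentrations; linearly interpolated endpoints. GI50 marks 50% less growth. At the TGI there is no net growth.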

Columns and labels:
Assay in all cases: NCI tumour cell line growth inhibition, 48 h
MDA-N = test system: MDA-N
SF-539 CNS = test system: SF-539 CNS
MOLT-4 leukemia = test system: MOLT-4 leukemia
LOX IMVI melanoma = test system: LOX IMVI melanoma
UACC-257 melanoma = test system: UACC-257 melanoma
OVCAR-5 ovarian = test system: OVCAR-5 ovarian
NCI/ADR-RES ovarian = test system: NCI/ADR-RES ovarian
NCI-H226 lung = test system: NCI-H226 lung
SNB-75 CNS = test system: SNB-75 CNS
T-47D breast = test system: T-47D breast

Molecule `NCCSC(c1ccccc1)c1ccccc1` has a TGI (MDA-N) of 34.2 µM, a TGI (SF-539 CNS) of 37.2 µM and a TGI (MOLT-4 leukemia) of 42.6 µM. For the same molecule, the TGI (LOX IMVI melanoma) was 31.2 µM, the TGI (UACC-257 melanoma) was 30 µM and the TGI (OVCAR-5 ovarian) was 34 µM. For the same molecule, the TGI (NCI/ADR-RES ovarian) was > 100 µM, the TGI (NCI-H226 lung) was 65.6 µM and the TGI (SNB-75 CNS) was 79.9 µM.
In the case of `Nc1nc(SCCc2ccccc2)nc2nc3c(c(-c4ccccc4)c12)CCCC3`, the TGI (MDA-N) was > 100 µM, the TGI (SF-539 CNS) was > 100 µM and the TGI (MOLT-4 leukemia) was > 100 µM. For the same molecule, the TGI (LOX IMVI melanoma) was > 100 µM, the TGI (UACC-257 melanoma) was > 100 µM and the TGI (T-47D breast) was > 100 µM. For the same molecule, the TGI (NCI/ADR-RES ovarian) was > 100 µM and the TGI (SNB-75 CNS) was 83.7 µM.
For `CCOC(=O)C1=NN(c2ccc(C)cc2)C2=CC(C)=NN(C)C(=S)N21`, the TGI (MDA-N) was > 100 µM, the TGI (SF-539 CNS) was > 100 µM and the TGI (MOLT-4 leukemia) was > 100 µM. For the same molecule, the TGI (LOX IMVI melanoma) was > 100 µM, the TGI (UACC-257 melanoma) was > 100 µM and the TGI (T-47D breast) was 61.3 µM. The TGI (OVCAR-5 ovarian) was > 100 µM, the TGI (NCI/ADR-RES ovarian) was > 100 µM and the TGI (SNB-75 CNS) was > 100 µM.
In the case of `CCOC(=O)C(NC(=O)c1ccco1)(Nc1nc2ccc(OCC)cc2s1)C(F)(F)F` (stereo unspecified), the TGI (MDA-N) was 60 µM, the TGI (SF-539 CNS) was > 100 µM and the TGI (MOLT-4 leukemia) was > 100 µM. For the same molecule, the TGI (UACC-257 melanoma) was 76.1 µM, the TGI (T-47D breast) was > 100 µM and the TGI (OVCAR-5 ovarian) was > 100 µM. For the same molecule, the TGI (NCI/ADR-RES ovarian) was > 100 µM, the TGI (NCI-H226 lung) was > 100 µM and the TGI (SNB-75 CNS) was 70.7 µM.
In the case of `O=C(c1cccs1)N(C(=S)OC12CC3CC(CC(C3)C1)C2)c1ccccc1`, the TGI (MDA-N) was > 100 µM, the TGI (SF-539 CNS) was > 100 µM and the TGI (MOLT-4 leukemia) was > 100 µM. The TGI (LOX IMVI melanoma) was 92.9 µM, the TGI (UACC-257 melanoma) was > 100 µM and the TGI (T-47D breast) was > 100 µM. For the same molecule, the TGI (OVCAR-5 ovarian) was > 100 µM, the TGI (NCI/ADR-RES ovarian) was > 100 µM and the TGI (NCI-H226 lung) was > 100 µM. For the same molecule, the TGI (SNB-75 CNS) was > 100 µM.
In the case of `COc1ccc2c(c1)[nH]c1c(/C=C/c3ccccc3)nccc12`, the TGI (MDA-N) was 37.2 µM, the TGI (SF-539 CNS) was 32.3 µM and the TGI (MOLT-4 leukemia) was > 100 µM. For the same molecule, the TGI (LOX IMVI melanoma) was 63.2 µM, the TGI (UACC-257 melanoma) was 31.1 µM and the TGI (T-47D breast) was > 100 µM. For the same molecule, the TGI (OVCAR-5 ovarian) was 30.5 µM, the TGI (NCI/ADR-RES ovarian) was 37.9 µM and the TGI (NCI-H226 lung) was 53.1 µM. For the same molecule, the TGI (SNB-75 CNS) was 32.3 µM.
`CC12CC3OC(=O)C1COC14OC5(C2C1=O)C(O)(CCC1C4CC(O)C2(O)CC=CC(=O)C12C)C(=O)OC35C` (stereo unspecified) was tested, and the TGI (MDA-N) was > 100 µM, the TGI (SF-539 CNS) was > 100 µM and the TGI (MOLT-4 leukemia) was > 100 µM. For the same molecule, the TGI (LOX IMVI melanoma) was > 100 µM, the TGI (UACC-257 melanoma) was > 100 µM and the TGI (T-47D breast) was > 100 µM. For the same molecule, the TGI (OVCAR-5 ovarian) was > 100 µM, the TGI (NCI/ADR-RES ovarian) was > 100 µM and the TGI (NCI-H226 lung) was > 100 µM. For the same molecule, the TGI (SNB-75 CNS) was > 100 µM.
Work on `CC1CC[C@@]2(OC1)OC1C[C@H]3[C@@H]4CC=C5CC(OC6OC(CO)C(OC7OC(CO)C(O)C(OC8OCC(O)C(O)C8O)C7OC7OC(CO)C(O)C(O)C7O)C(O)C6O)CCC5(C)[C@H]4CCC3(C)C1[C@@H]2C` (stereo partly specified) yielded a TGI (SF-539 CNS) of 7.37 µM, a TGI (MOLT-4 leukemia) of 19.8 µM and a TGI (LOX IMVI melanoma) of 8.53 µM. The TGI (UACC-257 melanoma) was 18 µM, the TGI (T-47D breast) was 11.9 µM and the TGI (OVCAR-5 ovarian) was > 25 µM. The TGI (NCI/ADR-RES ovarian) was 12.9 µM, the TGI (NCI-H226 lung) was > 25 µM and the TGI (SNB-75 CNS) was 13.7 µM.
In the case of `Cc1ccccc1C(=O)N/N=C/c1ccc(Sc2nccn2C)c([N+](=O)[O-])c1`, the TGI (MDA-N) was > 100 µM, the TGI (SF-539 CNS) was > 100 µM and the TGI (MOLT-4 leukemia) was > 100 µM. The TGI (LOX IMVI melanoma) was > 100 µM, the TGI (UACC-257 melanoma) was > 100 µM and the TGI (T-47D breast) was > 100 µM. For the same molecule, the TGI (OVCAR-5 ovarian) was > 100 µM, the TGI (NCI/ADR-RES ovarian) was > 100 µM and the TGI (NCI-H226 lung) was > 100 µM. For the same molecule, the TGI (SNB-75 CNS) was > 100 µM.
With `[N-]=[N+]=CC(=O)c1ccccc1C#CCCc1ccccc1` the TGI (SF-539 CNS) was > 100 µM, the TGI (MOLT-4 leukemia) was 40.9 µM and the TGI (LOX IMVI melanoma) was > 100 µM. For the same molecule, the TGI (UACC-257 melanoma) was 94.7 µM, the TGI (OVCAR-5 ovarian) was > 100 µM and the TGI (NCI-H226 lung) was 98.3 µM. The TGI (SNB-75 CNS) was 61.4 µM.
In the case of `Cc1c(N2C(=O)CS(=O)(=O)C2c2cccc(Oc3ccccc3)c2)c(=O)n(-c2ccccc2)n1C` (stereo unspecified), the TGI (MDA-N) was 62.6 µM, the TGI (SF-539 CNS) was > 100 µM and the TGI (MOLT-4 leukemia) was > 100 µM. For the same molecule, the TGI (LOX IMVI melanoma) was > 100 µM, the TGI (UACC-257 melanoma) was > 100 µM and the TGI (T-47D breast) was > 100 µM. For the same molecule, the TGI (OVCAR-5 ovarian) was > 100 µM, the TGI (NCI/ADR-RES ovarian) was > 100 µM and the TGI (NCI-H226 lung) was > 100 µM.
Molecule `O=C(C[n+]1ccc2ccccc2c1)c1ccc2ccc3ccccc3c2c1` has a TGI (MDA-N) of 10.8 µM, a TGI (SF-539 CNS) of 14.2 µM and a TGI (MOLT-4 leukemia) of 2.69 µM. It also gave a TGI (LOX IMVI melanoma) of 6.57 µM, a TGI (UACC-257 melanoma) of 5.64 µM and a TGI (T-47D breast) of 19.3 µM. For the same molecule, the TGI (OVCAR-5 ovarian) was 19.8 µM, the TGI (NCI/ADR-RES ovarian) was 32.7 µM and the TGI (NCI-H226 lung) was 25.3 µM. It also gave a TGI (SNB-75 CNS) of 18.5 µM.
With `COc1nc(C#CC2(O)CCCCC2)nc(OC)n1` the TGI (MDA-N) was 26.3 µM, the TGI (SF-539 CNS) was 23.3 µM and the TGI (MOLT-4 leukemia) was > 100 µM. The TGI (LOX IMVI melanoma) was 11.7 µM, the TGI (UACC-257 melanoma) was 31.7 µM and the TGI (T-47D breast) was > 100 µM. The TGI (OVCAR-5 ovarian) was 25.4 µM, the TGI (NCI/ADR-RES ovarian) was 68.9 µM and the TGI (SNB-75 CNS) was 40.3 µM.
In the case of `CCCCCCCCC/C=C/C=C/C(=O)NCC(=O)NC1C(O)C(O)C(Nc2ncnc3nc[nH]c23)OC1C(O)CO` (stereo unspecified), the TGI (MDA-N) was 1.21 µM, the TGI (SF-539 CNS) was 0.103 µM and the GI50 (MOLT-4 leukemia) was 0.372 µM. The TGI (MOLT-4 leukemia) was > 100 µM, the GI50 (LOX IMVI melanoma) was 0.00735 µM and the TGI (LOX IMVI melanoma) was 0.0396 µM. For the same molecule, the TGI (UACC-257 melanoma) was 0.207 µM, the GI50 (OVCAR-5 ovarian) was 0.00137 µM and the TGI (OVCAR-5 ovarian) was 0.0182 µM and 0.0671 µM. For the same molecule, the GI50 (NCI-H226 lung) was 0.00179 µM, the TGI (NCI-H226 lung) was 0.1 µM and 0.373 µM and the GI50 (SNB-75 CNS) was 0.00184 µM. The TGI (SNB-75 CNS) was 0.018 µM and 0.0703 µM.
For `CNC(=O)OCc1c(CO)nc(SC)n1C`, the TGI (SF-539 CNS) was > 100 µM, the TGI (MOLT-4 leukemia) was > 100 µM and the TGI (LOX IMVI melanoma) was > 100 µM. The TGI (UACC-257 melanoma) was > 100 µM, the TGI (OVCAR-5 ovarian) was > 100 µM and the TGI (NCI/ADR-RES ovarian) was > 100 µM. For the same molecule, the TGI (NCI-H226 lung) was > 100 µM and the TGI (SNB-75 CNS) was > 100 µM.
Work on `CC(=O)C1=C(C)N(c2ccc(C)cc2)C2(O)C=CC(=O)C3C(=O)N(c4ccccc4)C(=O)C132` (stereo unspecified) yielded a TGI (SF-539 CNS) of 65.2 µM, a TGI (UACC-257 melanoma) of 36.5 µM and a TGI (T-47D breast) of 54.6 µM. For the same molecule, the TGI (OVCAR-5 ovarian) was > 100 µM, the TGI (NCI/ADR-RES ovarian) was > 100 µM and the TGI (NCI-H226 lung) was 34.3 µM. For the same molecule, the TGI (SNB-75 CNS) was 50.5 µM.
In the case of `CCC1CN(C(=O)c2ccccc2)C(Cc2c[nH]c3ccccc23)C(=O)C1CC(=O)OC` (stereo unspecified), the TGI (SF-539 CNS) was > 100 µM, the TGI (MOLT-4 leukemia) was > 100 µM and the TGI (LOX IMVI melanoma) was > 100 µM. The TGI (UACC-257 melanoma) was > 100 µM, the TGI (T-47D breast) was > 100 µM and the TGI (OVCAR-5 ovarian) was > 100 µM. The TGI (NCI/ADR-RES ovarian) was > 100 µM, the TGI (NCI-H226 lung) was > 100 µM and the TGI (SNB-75 CNS) was > 100 µM.
